Experimental findings from PubChem BioAssay (NCI) are described below.

Values joined by “and” are separate entries in the source; they are usually repeats but may differ in a detail not shown here. Equal values may be shown once.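 These data come from cells grown in 96-well plates and exposed to compound for 48 hours at five concentrations. GI50 is the concentration that inhibits growth by half. The concentration for full growth arrest is given as TGI.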

Holding throughout (test): NCI tumour cell line growth inhibition, 48 h
Assay [1] has as its system K-562 leukemia.
Assay [2] relates to MDA-MB-435.
In assay [3] the test system is M14 melanoma.
The test system of assay [4] is U251 CNS.
The test system of assay [5] is RPMI-8226 leukemia.
In assay [6] the test system is MOLT-4 leukemia.
Assay [7] relates to OVCAR-3 ovarian.
Assay [8] has as its system RXF 393 renal.
The test system of assay [9] is MCF7 breast.
The subject of assay [10] is HT29 colon.

Take `N#Cc1c(-c2cccs2)c2c(=S)[nH]c(=S)[nH]c2[nH]c1=S`: the GI50 in assay [1] is 27.1 µM; in assay [2], 41.1 µM; in assay [3], 57.5 µM; in [4] it was 30.2 µM; in [5], 27.4 µM; in assay [6], 14.3 µM. Besides, the GI50 was 34.5 µM in assay [7] and 37.1 µM in assay [8]. Further, the TGI was more than 100 µM in [1]; more than 100 µM in assay [2]; more than 100 µM in [3]; more than 100 µM in [4]; 73.6 µM in assay [5]; 42.7 µM in assay [6]. Also, the TGI was 98.8 µM in [7] and more than 100 µM in [8].

For `COc1ccc(C(=O)Nc2ncc(Cc3ccc(Cl)cc3)s2)cc1`, the GI50 in assay [1] is 0.041 µM; in assay [3], 0.0422 µM; in [9], 0.0385 µM; in [4] it was 0.0691 µM; in assay [5], 0.0375 µM; in assay [10] it was 0.0396 µM. Also, the GI50 was 0.064 µM in assay [6], 0.0327 µM in assay [7] and 0.048 µM in [8]. The TGI in [1], in assay [3], in assay [9], in [4], in [10] and in assay [6] was more than 100 µM in each case. Moreover, the TGI in assay [7] came to 0.159 µM; in assay [8], 0.927 µM.

As to `COc1ccc(/C=C/C=C(/C#N)C(N)=S)cc1`, the GI50 in assay [1] was 29.9 µM; in assay [2] it was 21.6 µM; in [3], 18.8 µM; in assay [9] it was 29.5 µM; in assay [4], 28.5 µM; in [10], 26 µM. Also, the GI50 was 15.5 µM in assay [7] and 14 µM in assay [8]. Also, the TGI in [1] was more than 100 µM; in [2] it was 77.1 µM; in assay [3], 42.7 µM; in assay [9] it was more than 100 µM; in assay [4], more than 100 µM; in assay [10] it was more than 100 µM. Also, the values for the TGI in assay [7] and in assay [8] were 42.7 µM and 30.1 µM, respectively.

Turning to `O=C(/C=C/c1ccc(Cl)cc1)c1ccc(Cl)cc1Cl`, the GI50 in assay [1] is 1.68 µM; in [2] it was 9.11 µM; in [3] it was 10.9 µM; in assay [9], 6.28 µM; in assay [4], 7.23 µM; in assay [5], 1.42 µM. Also, the values for the GI50 in [6] and in assay [7] were 0.915 µM and 9.19 µM, respectively. Besides, the TGI worked out at 14.2 µM in assay [1]; 24.3 µM in [2]; 24.2 µM in assay [3]; 23 µM in assay [9]; 14.1 µM in assay [4]; 11 µM in assay [5]. Moreover, the TGI in assay [6] was 2.12 µM; in assay [7], 18.4 µM.

As to `COc1ccc2cc1Oc1ccc(cc1)C[C@H]1c3cc(c(OC)cc3CCN1C)Oc1c(OC)c(OC)cc3c1[C@H](C2)N(C)CC3`, the TGI was 11.1 µM and > 100 µM in assay [1]; 14 µM and 17.8 µM and > 100 µM in assay [9]; 15.1 µM and 13.5 µM and > 100 µM in assay [4]; 20.3 µM and 5.21 µM in assay [5]; 15.7 µM and 28.7 µM in [7]; 12.1 µM and 6.61 µM in assay [8]. In addition, the GI50 in assay [9] is 5.27 µM; in assay [4] it was 3.92 µM; in assay [5] it was 1.92 µM; in assay [7], 11.8 µM; in assay [8], 1.97 µM.

Consider `N#Cc1c(NC(=O)c2cccc(C(F)(F)F)c2)sc2c1CCC(=O)C2`, for which the GI50 in [1] is 0.217 µM; in [2], 0.651 µM; in assay [3], 0.525 µM; in [4], 0.352 µM; in assay [5], 0.239 µM; in assay [10], 0.367 µM. Also, the GI50 in [6] is 0.35 µM; in [7] it was 0.418 µM; in assay [8], 0.391 µM. The TGI is 2.11 µM in assay [2]; 2.22 µM in assay [3]; 1.58 µM in assay [4]; 0.869 µM in [5]; 2.47 µM in assay [10]; more than 32.2 µM in assay [6]. Further, the TGI was 1.52 µM in [7] and 1.45 µM in assay [8].

Take `CSc1nc(SC)c2c(CN=[N+]=[N-])c(Br)n(Cc3ccccc3)c2n1`: the TGI in [2], in assay [3], in [9], in assay [4], in assay [5] and in assay [10] was more than 100 µM each time. The TGI in [6] and in assay [7] was more than 100 µM throughout.

With `CNC(=O)c1ccccc1CC1(O)c2ccccc2Oc2ccccc21`, the GI50 in assay [1] was 6.78 µM; in [2], 3.32 µM; in assay [3] it was 15.3 µM; in assay [9], 5.08 µM; in assay [4] it was 19.6 µM; in assay [5], 26.6 µM. In addition, the GI50 in assay [10] was 9.73 µM; in assay [6], 36.4 µM. In addition, the TGI in assay [1] is more than 100 µM; in [2] it was 19.9 µM; in assay [3] it was 56.6 µM; in assay [9], 44.5 µM; in assay [4], 59.6 µM; in assay [5] it was 91.7 µM. The TGI in [10] is 51.1 µM; in assay [6], more than 100 µM.

As to `O=c1cc(-c2cccc(F)c2)[nH]c2cc3c(cc12)OCO3`, the GI50 is 0.338 µM in [1]; 0.286 µM in assay [3]; 0.268 µM in [4]; 0.69 µM and 0.172 µM in [10]; 0.799 µM in assay [6]; 0.291 µM in [7]. Also, the TGI in [1] was 75 µM and > 16.4 µM; in assay [2], 0.0211 µM; in [3], 75 µM and 23.8 µM; in assay [9], more than 100 µM; in assay [4] it was 9.58 µM and 49.1 µM; in assay [10], 3.23 µM and 0.705 µM. In addition, the TGI is 75 µM and > 16.8 µM in [6]; 4.84 µM in assay [8].

For `COC(=O)C(c1[nH]nc2ccccc12)C(C(=O)OC)c1[nH]nc2ccccc12` (centres undefined), the TGI in assay [1] is more than 100 µM; in [3] it was more than 100 µM; in [4] it was more than 100 µM; in [5], 50.4 µM; in [10] it was more than 100 µM; in assay [6], 82.5 µM. Besides, the TGI in [7] was more than 100 µM; in assay [8] it was 66.3 µM.
